In brackets after ≈: the same amount, converted by molar mass. Where only a bound is given, the exact number is not on record here.

The text below walks through data of patent US9700044B2, “Symmetrical marinopyrrole derivatives as potential antibiotic agents” (priority 2013, dated 2017).

Experiment [1] relates to Methicillin-resistant Staphylococcus aureus with the mec A gene and PBP2a (WHO-31). The experiment in a line: MIC by agar dilution, MRSA (WHO-31). The experiment is classed as cell-based. To be noted: Table 1; MRSA (WHO-31), 1 isolate. An excerpt: (§1) A panel of multiple resistance Gram-positive and Gram-negative pathogens listed in Tables 1 and 2 was used to evaluate the antimicrobial activity of marinopyrrole derivatives (Chart 1) with vancomycin as a positive control. Except for those marked with WHO, all pathogens were isolated between 2008 and 2010 in hospitals located in Beijing; Guangzhou; Sichuan, Shandong and Jiangsu Province. Determination of the minimum inhibitory concentration (MIC) was done by the guidelines of the Clinical and Laboratory Standards Institute (Clinical and Laboratory Standards Institute, Performance standards for antimicrobial susceptibility testing, seventeenth informational supplement. 2007, 27, M100-S17). The susceptibility tests of a bacterial strain to a marinopyrrole derivative were performed by an agar dilution method. Briefly, each sterile petri dish contained a final volume of 15 mL comprising 1 mL of a marinopyrrole derivative and 14 mL of Mueller-Hinton broth. The concentrations of a marinopyrrole derivative are 128, 64, 32, 16, 8, 4, 2, 1, 0.5, 0.25, 0.125, 0.06, 0.03, 0.015 and 0.008 μg/mL. The petri dish containing the broth with different concentration of antibiotics was first inoculated with 10^5 CFU/mL (Denley A400, United Kingdom) and the culture was then incubated with shaking at 35-37° C. for 18-20 h. The potency of the compound was determined and expressed as minimum inhibitory concentration (MIC) in μg/mL. The MIC was determined as the lowest concentration of antibiotic that inhibited visible bacterial growth.
In general terms: In agar dilution the substance is mixed into plates at graded concentrations.

Experiment [2] deals with Methicillin-resistant Staphylococcus epidermidis (MRSE). The experiment in a line: MIC by agar dilution, MRSE clinical isolates. The experiment is classed as cell-based. To be noted: Table 1; MRSE, 3 isolates.
Source text: as §1

The subject of experiment [3] is Oxacillin-resistant Staphylococcus aureus (WHO-25). The experiment in a line: MIC by agar dilution, ORSA (WHO-25). The experiment is classed as cell-based. Conditions: Table 1; ORSA (WHO-25), 1 isolate.
Source text: as §1

Experiment [4] concerns K. penumonia. The experiment is described as follows: MIC by agar dilution, K. penumonia. The experiment is classed as cell-based, K. pneumonia. To be noted: Table 1; K. penumonia, 4 isolates; value over three Gram-negative pathogens.
Source text: as §1

Experiment [5] relates to Highly vancomycin-resistant Enterococci faecalis (VRE). The experiment is described as follows: MIC by agar dilution, highly resistant VRE. The experiment is classed as cell-based. Conditions: Table 1; VRE (highly vancomycin-resistant E. faecalis), 2 isolates.
Source text: as §1

Experiment [6] has as its system E. coli. The experiment in a line: MIC by agar dilution, E. coli. The experiment is classed as cell-based. Conditions: Table 1; E. coli, 4 isolates; value over three Gram-negative pathogens.
Source text: as §1

Experiment [7] relates to Moderately vancomycin-resistant Enterococci faecium with the VanA gene (WHO-3). The experiment in a line: MIC by agar dilution, VRE (WHO-3). The experiment is classed as cell-based. To be noted: Table 1; VRE (WHO-3), 1 isolate.
Source text: as §1

Experiment [8] concerns P. aeruginosa. The experiment is described as follows: MIC by agar dilution, P. aeruginosa. The experiment is classed as cell-based. Conditions: Table 1; P. aeruginosa, 4 isolates; value over three Gram-negative pathogens.
Source text: as §1

Experiment [9] deals with Methicillin-susceptible Staphylococcus aureus (MSSA). The experiment in a line: MIC by agar dilution, MSSA clinical isolates. The experiment is classed as cell-based. To be noted: Table 1; MSSA, 10 isolates.
Source text: as §1

The subject of experiment [10] is Methicillin-resistant Staphylococcus aureus (MRSA). The experiment in a line: MIC by agar dilution, MRSA clinical isolates. The experiment is classed as cell-based. Conditions: Table 1; MRSA, 10 isolates.
Source text: as §1

`O=C(c1ccccc1F)c1[nH]c(Cl)c(Cl)c1-n1c(C(=O)c2ccccc2F)cc(Cl)c1Cl` [Compound 1g]: the MIC in experiment [1], in experiment [2], in [3], in experiment [4], in experiment [5] and in experiment [6] was >128 µg/mL throughout. Further, the MIC in experiment [7], in experiment [8], in [9] and in [10] was >128 µg/mL throughout.

Consider `COc1ccc(C(=O)c2[nH]c(Cl)c(Cl)c2-n2c(C(=O)c3ccc(OC)cc3)cc(Cl)c2Cl)cc1` [Compound 1f], for which the MIC in experiment [1], in experiment [2], in [3], in experiment [4], in experiment [5] and in experiment [6] was >128 µg/mL in each case. For the same compound, the MIC in experiment [7], in experiment [8], in experiment [9] and in experiment [10] was >128 µg/mL in each case.

Turning to `O=C(c1cccc(F)c1)c1[nH]c(Cl)c(Cl)c1-n1c(C(=O)c2cccc(F)c2)cc(Cl)c1Cl` [Compound 1h], the MIC in experiment [1] was 4 µg/mL (≈ 7.78 µM); in experiment [2] it was 0.13 to 1 µg/mL; in experiment [3] it was 4 µg/mL (≈ 7.78 µM); in experiment [4] it was >128 µg/mL; in experiment [5], >128 µg/mL; in [6] it was >128 µg/mL. The MIC in experiment [7] was 4 µg/mL (≈ 7.78 µM); in [8], >128 µg/mL; in [9], 4 to 16 µg/mL; in [10], >64 µg/mL.

For `O=C(c1ccccc1)c1[nH]c(Cl)c(Cl)c1-n1c(C(=O)c2ccccc2)cc(Cl)c1Cl` [Compound 1d], the MIC is 4 µg/mL (≈ 8.37 µM) in experiment [1]; 0.5 to 4 µg/mL in experiment [2]; 4 µg/mL (≈ 8.37 µM) in [3]; >128 µg/mL in [4]; >128 µg/mL in experiment [5]; >128 µg/mL in [6]. Also, the MIC in experiment [7] is 2 µg/mL (≈ 4.18 µM); in [8], >128 µg/mL; in experiment [9], 2 to 8 µg/mL; in [10], 4 to 8 µg/mL.

Regarding `COc1cccc(C(=O)c2[nH]c(Cl)c(Cl)c2-n2c(C(=O)c3cccc(OC)c3)cc(Cl)c2Cl)c1` [Compound 1e], the MIC in experiment [1], in experiment [2], in experiment [3], in [4], in [5] and in experiment [6] was >128 µg/mL each time. For the same compound, the MIC in [7], in [8], in experiment [9] and in [10] was >128 µg/mL throughout.

Turning to `COc1cc(OC)c(C(=O)c2[nH]c(Cl)c(Cl)c2-n2c(C(=O)c3cc(Cl)c(OC)cc3OC)cc(Cl)c2Cl)cc1Cl` [Compound 1n], the MIC in experiment [1], in experiment [2], in experiment [3], in experiment [4], in experiment [5] and in experiment [6] was >64 µg/mL throughout. Also, the MIC in experiment [7], in experiment [8], in experiment [9] and in [10] was >64 µg/mL in each case.

One may read the MIC as the least concentration at which growth counts as inhibited. Low readings indicate greater potency, high ones weaker potency.
